Source: patent publication US12673945B2, “3-((8-((1H-pyrazol-4-yl)amino)imidazo[1,2-a]pyridin-3-yl)ethinyl)-n-phenylbenzamide derivative, method for preparing same, and pharmaceutical composition containing same as active ingredient for prevention or treatment of cancer” (DAEGU-GYEONGBUK MEDICAL INNOVATION FOUNDATION, priority 2020, dated 2026)

Columns and labels:
Assay type in all cases: cell-based
[1] = test system: Parental (Ba/F3); experiment: Ba/F3 cell proliferation inhibition; conditions: BaF3; 72 hours, Cell Counting Kit-8
Summary of the method: (§1)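 Parental and T315I-Bcr-Abl Ba/F3 cells, 1×10^4 per well, exposed 72 h at 37 °C to nine 3-fold dilutions, final 0 to 10 μM. Viability by CCK-8 after 2 h, absorbance 450 nm; GI50 fitted from percent of vehicle-treated cells.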

[2] = test system: T315I-Bcr-Abl (Ba/F3); experiment: Ba/F3 cell proliferation inhibition; conditions: BaF3; 72 hours, Cell Counting Kit-8
Summary of the method: as §1

[3] = test system: KOPM28 cells; experiment: human CML cell proliferation inhibition; conditions: 72 hours, Cell Counting Kit-8
Summary of the method: (§2)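 Read-out: CCK-8, A450 after 2 h, expressed as % of vehicle-treated cells; GI50 fitted from 9-point curves. Compound exposure 72 h at 37 °C, final 0–10 μM, 5-fold dilutions. Bcr-Abl lines TCCS/KOPM28; T315I-Bcr-Abl lines T315I-TCCS/T315I-KOPM28.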

[4] = test system: T315I-KOPM28 cells; experiment: human CML cell proliferation inhibition; conditions: 72 hours, Cell Counting Kit-8
Summary of the method: as §2

[5] = test system: T315I-TCCS cells; experiment: human CML cell proliferation inhibition; conditions: 72 hours, Cell Counting Kit-8
Summary of the method: as §2

[6] = test system: TCCS cells; experiment: human CML cell proliferation inhibition; conditions: 72 hours, Cell Counting Kit-8
Summary of the method: as §2

In the case of `Cc1cc(F)c(C(=O)Nc2cc(N3CCN(C)CC3)cc(C(F)(F)F)c2)cc1C#Cc1cnc2c(Nc3cn[nH]c3)cccn12` [Example 99, 5-((8-((1H-pyrazol-4-yl)amino)imidazo[1,2-a]pyridin-3-yl)ethynyl)-2-fluoro-4-methyl-N-(3-(4-methylpiperazin-1-yl)-5-(trifluoromethyl)phenyl)benzamide], the GI50 [1] is reported as 500 to 5000 nM, the GI50 [2] is reported as 50 to 500 nM and the GI50 [3] is reported as less than 10 nM. It also gave a GI50 [4] greater than 100 nM, a GI50 [5] of 100 nM and a GI50 [6] of less than 10 nM.

For `Cc1cc(F)c(C(=O)Nc2cc(N3CCN(C)C(=O)C3)cc(C(F)(F)F)c2)cc1C#Cc1cnc2c(Nc3cn[nH]c3)cccn12` [Example 100, 5-((8-((1H-pyrazol-4-yl)amino)imidazo[1,2-a]pyridin-3-yl)ethynyl)-2-fluoro-4-methyl-N-(3-(4-methyl-3-oxopiperazin-1-yl)-5-(trifluoromethyl)phenyl)benzamide], the GI50 [1] was greater than 5000 nM, the GI50 [2] was 50 to 500 nM and the GI50 [3] was less than 10 nM. It also gave a GI50 [4] greater than 100 nM, a GI50 [5] of 100 nM and a GI50 [6] of less than 10 nM.

`Cc1cc(F)c(C(=O)Nc2cc(Oc3ccncc3)cc(C(F)(F)F)c2)cc1C#Cc1cnc2c(Nc3cn[nH]c3)cccn12` [Example 101, 5-((8-((1H-pyrazol-4-yl)amino)imidazo[1,2-a]pyridin-3-yl)ethynyl)-2-fluoro-4-methyl-N-(3-(pyridin-4-yloxy)-5-(trifluoromethyl)phenyl)benzamide] gave a GI50 [1] greater than 5000 nM, a GI50 [2] of less than 50 nM and a GI50 [3] of less than 10 nM. For the same compound, the GI50 [4] was 100 nM, the GI50 [5] was less than 10 nM and the GI50 [6] was less than 10 nM.

For `Cc1cc(F)c(C(=O)Nc2cc(OCCN(C)C)cc(C(F)(F)F)c2)cc1C#Cc1cnc2c(Nc3cn[nH]c3)cccn12` [Example 102, 5-((8-((1H-pyrazol-4-yl)amino)imidazo[1,2-a]pyridin-3-yl)ethynyl)-N-(3-(2-(dimethylamino)ethoxy)-5-(trifluoromethyl)phenyl)-2-fluoro-4-methylbenzamide], the GI50 [1] was 500 to 5000 nM, the GI50 [2] was 50 to 500 nM and the GI50 [3] was less than 10 nM. The GI50 [4] was greater than 100 nM, the GI50 [5] was 100 nM and the GI50 [6] was less than 10 nM.

`Cc1cc(F)c(C(=O)Nc2cc(OCCCN(C)C)cc(C(F)(F)F)c2)cc1C#Cc1cnc2c(Nc3cn[nH]c3)cccn12` [Example 103, 5-((8-((1H-pyrazol-4-yl)amino)imidazo[1,2-a]pyridin-3-yl)ethynyl)-N-(3-(3-(dimethylamino)propoxy)-5-(trifluoromethyl)phenyl)-2-fluoro-4-methylbenzamide] gave a GI50 [1] greater than 5000 nM, a GI50 [2] of 50 to 500 nM and a GI50 [3] of less than 10 nM. The GI50 [4] was greater than 100 nM, the GI50 [5] was 100 nM and the GI50 [6] was less than 10 nM.

In the case of `Cc1cc(F)c(C(=O)Nc2cc(CN3CCN(C)CC3)cc(C(F)(F)F)c2)cc1C#Cc1cnc2c(Nc3cn[nH]c3)cccn12` [Example 104, 5-((8-((1H-pyrazol-4-yl)amino)imidazo[1,2-a]pyridin-3-yl)ethynyl)-2-fluoro-4-methyl-N-(3-((4-methylpiperazin-1-yl)methyl)-5-(trifluoromethyl)phenyl)benzamide], the GI50 [1] is reported as 500 to 5000 nM, the GI50 [2] is reported as 50 to 500 nM and the GI50 [3] is reported as less than 10 nM. It also gave a GI50 [4] greater than 100 nM, a GI50 [5] of 100 nM and a GI50 [6] of less than 10 nM.

Compound `Cc1cc(F)c(C(=O)Nc2cc(CN3CCC(N(C)C)C3)cc(C(F)(F)F)c2)cc1C#Cc1cnc2c(Nc3cn[nH]c3)cccn12` (stereo not drawn) [Example 105, 5-((8-((1H-pyrazol-4-yl)amino)imidazo[1,2-a]pyridin-3-yl)ethynyl)-N-(3-((3-(dimethylamino)pyrrolidin-1-yl)methyl)-5-(trifluoromethyl)phenyl)-2-fluoro-4-methylbenzamide] has a GI50 [1] of 500 to 5000 nM, a GI50 [2] of less than 50 nM and a GI50 [3] of less than 10 nM. The GI50 [4] was 100 nM, the GI50 [5] was less than 10 nM and the GI50 [6] was less than 10 nM.

For `Cc1cc(F)c(C(=O)Nc2cc(CN3CCN(CCO)CC3)cc(C(F)(F)F)c2)cc1C#Cc1cnc2c(Nc3cn[nH]c3)cccn12` [Example 106, 5-((8-((1H-pyrazol-4-yl)amino)imidazo[1,2-a]pyridin-3-yl)ethynyl)-2-fluoro-N-(3-((4-(2-hydroxyethyl)piperazin-1-yl)methyl)-5-(trifluoromethyl)phenyl)-4-methylbenzamide], the GI50 [1] was greater than 5000 nM, the GI50 [2] was 50 to 500 nM and the GI50 [3] was less than 10 nM. The GI50 [4] was greater than 100 nM, the GI50 [5] was 100 nM and the GI50 [6] was less than 10 nM.

`Cc1cc(F)c(C(=O)Nc2cc(CN3CCN(C)C(=O)C3)cc(C(F)(F)F)c2)cc1C#Cc1cnc2c(Nc3cn[nH]c3)cccn12` [Example 107, 5-((8-((1H-pyrazol-4-yl)amino)imidazo[1,2-a]pyridin-3-yl)ethynyl)-2-fluoro-4-methyl-N-(3-((4-methyl-3-oxopiperazin-1-yl)methyl)-5-(trifluoromethyl)phenyl)benzamide] showed a GI50 [1] of 500 to 5000 nM, a GI50 [2] of 50 to 500 nM and a GI50 [3] of less than 10 nM. The GI50 [4] was greater than 100 nM, the GI50 [5] was 100 nM and the GI50 [6] was less than 10 nM.

Compound `Cc1cc(F)c(C(=O)Nc2cc(Cn3cncn3)cc(C(F)(F)F)c2)cc1C#Cc1cnc2c(Nc3cn[nH]c3)cccn12` [Example 108, N-(3-((1H-1,2,4-triazol-1-yl)methyl)-5-(trifluoromethyl)phenyl)-5-((8-((1H-pyrazol-4-yl)amino)imidazo[1,2-a]pyridin-3-yl)ethynyl)-2-fluoro-4-methylbenzamide] has a GI50 [1] greater than 5000 nM, a GI50 [2] of 50 to 500 nM and a GI50 [3] of less than 10 nM. The GI50 [4] was greater than 100 nM, the GI50 [5] was 100 nM and the GI50 [6] was less than 10 nM.

With `Cc1cc(F)c(C(=O)Nc2ccc(CN3CCN(C)CC3)c(C(F)(F)F)c2)cc1C#Cc1cnc2c(Nc3cn[nH]c3)cccn12` [Example 109, 5-((8-((1H-pyrazol-4-yl)amino)imidazo[1,2-a]pyridin-3-yl)ethynyl)-2-fluoro-4-methyl-N-(4-((4-methylpiperazin-1-yl)methyl)-3-(trifluoromethyl)phenyl)benzamide] the GI50 [1] was 500 to 5000 nM, the GI50 [2] was less than 50 nM and the GI50 [3] was less than 10 nM. The GI50 [4] was less than 10 nM, the GI50 [5] was less than 10 nM and the GI50 [6] was less than 10 nM.

`Cc1cc(F)c(C(=O)Nc2ccc(CN3CCC(N(C)C)C3)c(C(F)(F)F)c2)cc1C#Cc1cnc2c(Nc3cn[nH]c3)cccn12` (stereo not drawn) [Example 110, 5-((8-((1H-pyrazol-4-yl)amino)imidazo[1,2-a]pyridin-3-yl)ethynyl)-N-(4-((3-(dimethylamino)pyrrolidin-1-yl)methyl)-3-(trifluoromethyl)phenyl)-2-fluoro-4-methylbenzamide] showed a GI50 [1] of 500 to 5000 nM, a GI50 [2] of less than 50 nM and a GI50 [3] of less than 10 nM. It also gave a GI50 [4] of 100 nM, a GI50 [5] of 100 nM and a GI50 [6] of less than 10 nM.

Work on `Cc1cc(F)c(C(=O)Nc2ccc(CN3CCN(CCO)CC3)c(C(F)(F)F)c2)cc1C#Cc1cnc2c(Nc3cn[nH]c3)cccn12` [Example 111, 5-((8-((1H-pyrazol-4-yl)amino)imidazo[1,2-a]pyridin-3-yl)ethynyl)-2-fluoro-N-(4-((4-(2-hydroxyethyl)piperazin-1-yl)methyl)-3-(trifluoromethyl)phenyl)-4-methylbenzamide] yielded a GI50 [1] of 500 to 5000 nM, a GI50 [2] of 50 to 500 nM and a GI50 [3] of less than 10 nM. The GI50 [4] was less than 10 nM, the GI50 [5] was less than 10 nM and the GI50 [6] was less than 10 nM.
